≈ marks a conversion by molar mass, not a printed value.
Experiments:
[1] = test system: Klebsiella pneumoniae 272; experiment: Serial dilution test in the microtiter system, MIC against Klebsiella pneumoniae 272; format: cell-based; settings: minimum inhibitory concentration, 37° C., 18 to 20 hours, read-out: MIC, Klebs. pneum. 272
Procedure: (§1) The tests were performed using the serial dilution test in the microtiter system. The effect of the test compounds on bacteriostasis was examined at the following concentrations: 80, 40, 20, 10, 5, 2.5, 1.25, 0.6, 0.3, 0.08 and 0.02 μgm/ml. The nutrient medium consisted of 10 gm of peptone, 8 gm of meat extract oxoid, 3 gm of sodium chloride, and 2 gm of sec. sodium phosphate diluted with distilled water to […] (pH 7.2-7.4). Only in the test against streptococci 1% of glucose was added. The age of the primary cultures was approximately 20 hours. The standardization of the bacteria suspension was effected using a photometer according to the method of Eppendorf (test tube .phi. 14 mm, filter 546 nm), using for comparison a barium sulfate suspension formed by the addition of 3.0 ml of 1% barium chloride solution to 97 ml of 1% sulfuric acid. After the standardization,Streptococcus aronson was further diluted to a concentration of 1:15, and the other bacteria to a concentration of 1:1500, using a sodium chloride solution.
(§2) 16 mgm of the particular test compound were put into a 10 ml measuring flask, and the flask was subsequently filled to the mark with solvent. The further dilution series was standardized with distilled water or the appropriate solvent.
(§3) The cavities of the microtiter plates were filled with 0.2 ml of nutrient medium. 0.01 ml of the appropriate test compound solution was then added, followed by inoculation with 0.01 ml of the standardized bacteria suspension. The bacteria were incubated at 37° C. for 18 to 20 hours. Control tests using only the solvent were carried out simultaneously.
(§4) The measurement was carried out macroscopically to determine the minimum inhibitory concentration (the lowest still bacteriostatically effective concentration).
(§5) The following test organisms were used:
(§6) Staphylococcus aureus SG 511, St. aureus E 88 (β-lactamase carrier), Escherichia coli ATCC 11 775, Pseudomonas aeruginosa Hamburgensis and Pseudomonas aeruginosa Walter, Serratia macrescens ATCC 13 880, Klebsiella pneumoniae ATCC 10 031 and 272, Proteus mirabilis Hamburgensis, Proteus rettgeri Eb. cloaceae ATCC 13047, and E. coli R+TEM (β-lactamase carrier).
(§7) The following tables show the determined minimum inhibitory concentrations (MIC) for a few representative compounds (E=Na) of the present invention, and two known cephalosporins for comparison: […]

St. aureus E 88 = experiment: Serial dilution test in the microtiter system, MIC against S. aureus E 88 (β-lactamase carrier); format: cell-based; settings: Staphylococcus aureus, E88, minimum inhibitory concentration, 37° C., 18 to 20 hours
Procedure: as §1, §2, §3, §4, §5, §6, §7

[2] = test system: Klebsiella pneumoniae ATCC 10 031; experiment: Serial dilution test in the microtiter system, MIC against Klebsiella pneumoniae ATCC 10031; format: cell-based; settings: minimum inhibitory concentration, 37° C., 18 to 20 hours, read-out: MIC, Klebs. pneum. ATCC 10031
Procedure: as §1, §2, §3, §4, §5, §6, §7

E. coli R+TEM = experiment: Serial dilution test in the microtiter system, MIC against E. coli R+TEM (β-lactamase carrier); format: cell-based; settings: Escherichia coli, read-out: MIC, E. coli R + TEM
Procedure: as §1, §2, §3, §4, §5, §6, §7

[3] = test system: Serratia macrescens ATCC 13 880; experiment: Serial dilution test in the microtiter system, MIC against Serratia marcescens ATCC 13880; format: cell-based; settings: read-out: MIC, Serr. marcesc. ATCC 13880
Procedure: as §1, §2, §3, §4, §5, §6, §7

[4] = test system: Pseudomonas aeruginosa Hamburgensis; experiment: Serial dilution test in the microtiter system, MIC against Pseudomonas aeruginosa Hamburgensis; format: cell-based; settings: minimum inhibitory concentration, 37° C., 18 to 20 hours, read-out: MIC, Pseud. aerug. Hbg.
Procedure: as §1, §2, §3, §4, §5, §6, §7

[5] = test system: Pseudomonas aeruginosa Walter; experiment: Serial dilution test in the microtiter system, MIC against Pseudomonas aeruginosa Walter; format: cell-based; settings: minimum inhibitory concentration, 37° C., 18 to 20 hours, read-out: MIC, Pseud. aerug. Walter
Procedure: as §1, §2, §3, §4, §5, §6, §7

[6] = test system: Escherichia coli ATCC 11 775; experiment: Serial dilution test in the microtiter system, MIC against E. coli ATCC 11775; format: cell-based; settings: minimum inhibitory concentration, 37° C., 18 to 20 hours
Procedure: as §1, §2, §3, §4, §5, §6, §7

Eb. cloaceae ATCC 13047 = experiment: Serial dilution test in the microtiter system, MIC against Eb. cloaceae ATCC 13047; format: cell-based; settings: minimum inhibitory concentration; 37° C., 18 to 20 hours
Procedure: as §1, §2, §3, §4, §5, §6, §7

[7] = test system: Staphylococcus aureus SG 511; experiment: Serial dilution test in the microtiter system, MIC against S. aureus SG 511; format: cell-based; settings: SG511, minimum inhibitory concentration, 37° C., 18 to 20 hours
Procedure: as §1, §2, §3, §4, §5, §6, §7

[8] = test system: Proteus mirabilis Hamburgensis; experiment: Serial dilution test in the microtiter system, MIC against Proteus mirabilis Hamburgensis; format: cell-based; settings: minimum inhibitory concentration, 37° C., 18 to 20 hours, read-out: MIC, Prot. Mir. Hbg.
Procedure: as §1, §2, §3, §4, §5, §6, §7

Proteus rettgeri = experiment: Serial dilution test in the microtiter system, MIC against Proteus rettgeri; format: cell-based; settings: Providencia rettgeri; minimum inhibitory concentration; 37° C., 18 to 20 hours; read-out: MIC, Prot. rettg.
Procedure: as §1, §2, §3, §4, §5, §6, §7

[9] = test system: Pseudomonas aeruginosa Walter; experiment: In vivo test in mice against experimental Pseudomonas infection; set-up: species or system Female NMRI mice; settings: subcutaneous, observation 7 days
Procedure: (§8) A series of the compounds according to the invention was tested in vivo in mice against experimental infections. As pathogenic bacteria were used E. coli ATCC 11775 and Pseudomonas aeruginosa Walter. An intraperitoneal infection was induced in each mouse with 0.2 ml of a 5% mucin suspension of the bacteria corresponding of approximately 1.4×10^6 E. coli cells and 1.3×10^6 Pseudomonas cells per mouse. Female NMRI mice were used, divided into groups of 10 animals. Two groups were untreated and the remaining groups were treated with different doses of the cephalosporins to be tested to determine the ED50 (dose at which 50% of the animals survived). The groups infected with E. coli were on the first day treated with the test compound three times ([…] post infectionem) and on the second day twice. The groups with the Pseudomonas infection were on the first day treated with the test compound six times (1, 3, 5, 7, 9 and 11 hours post infectionem), and on the following two days twice.
(§9) The observation time was in both cases 7 days.

E. coli ATCC 11775 = experiment: In vivo test in mice against experimental E. coli infection; set-up: species or system Female NMRI mice; settings: Escherichia coli, ATCC11775, sc, 168 h; subcutaneous; per dose; dose at which 50% of the animals survived; observation 7 days
Procedure: as §8, §9

Row | SMILES | MIC [1] [µg/mL] | MIC (St. aureus E 88) [µg/mL] | MIC [2] [µg/mL] | MIC (E. coli R+TEM) [µg/mL] | MIC [3] [µg/mL] | MIC [4] [µg/mL] | MIC [5] [µg/mL] | MIC [6] [µg/mL] | MIC (Eb. cloaceae ATCC 13047) [µg/mL] | MIC [7] [µg/mL] | MIC [8] [µg/mL] | MIC (Proteus rettgeri) [µg/mL] | Mortality, Pseudomonas infection ([9]; at 200 mg/kg per dose) | ED50 (E. coli ATCC 11775) [mg/kg] | ED50 ([9]; Pseudomonas aeruginosa, sc, 168 h, per dose, dose at which 50% of the animals survived) [mg/kg]
1 | Cn1nnnc1SCC1=C(C(=O)O)N2C(=O)[C@@H](NC(=O)C(NC(=O)Nc3cnc(Nc4ccc(S(N)(=O)=O)cc4)nc3O)c3cccs3)[C@H]2SC1 (stereo partly shown) [M] | 0.25 (≈ 0.323 µM) | 4 (≈ 5.16 µM) | 0.25 (≈ 0.323 µM) | 4 | 0.25 (≈ 0.323 µM) | 4 (≈ 5.16 µM) | 4 (≈ 5.16 µM) | 0.13 (≈ 0.168 µM) | 0.5 (≈ 0.645 µM) | 0.5 (≈ 0.645 µM) | 0.13 (≈ 0.168 µM) | 0.5 (≈ 0.645 µM) |  |  | 
2 | CO/N=C(\C(=O)N[C@@H]1C(=O)N2C(C(=O)O)=C(COC(N)=O)CS[C@H]12)c1ccco1 [Cefuroxim, reference compound] | 4 (≈ 9.43 µM) | 16 (≈ 37.7 µM) | 2 (≈ 4.71 µM) | 4 | 8 (≈ 18.9 µM) | > 100 | > 100 | 8 (≈ 18.9 µM) | 32 (≈ 75.4 µM) | 1 (≈ 2.36 µM) | 0.5 (≈ 1.18 µM) | 2 (≈ 4.71 µM) | all animals died | 37 | 
3 | Cc1nnc(SCC2=C(C(=O)O)N3C(=O)[C@@H](NC(=O)[C@H](NC(=O)Nc4cnc(NC5CCC(O)CC5)nc4O)c4ccc(O)cc4)[C@H]3SC2)s1 (stereo partly shown) [G] | 2 (≈ 2.69 µM) | 16 (≈ 21.5 µM) | 2 (≈ 2.69 µM) | 16 | 2 (≈ 2.69 µM) | 16 (≈ 21.5 µM) | 16 (≈ 21.5 µM) | 0.5 (≈ 0.672 µM) | 2 (≈ 2.69 µM) | 1 (≈ 1.34 µM) | 0.5 (≈ 0.672 µM) | 1 (≈ 1.34 µM) |  |  | 
4 | Cn1nnnc1SCC1=C(C(=O)O)N2C(=O)[C@@H](NC(=O)[C@H](NC(=O)Nc3cnc(Nc4ccc(S(N)(=O)=O)cc4)nc3O)c3ccc(O)cc3)[C@H]2SC1 [L] | 0.06 (≈ 0.0765 µM) | 4 (≈ 5.1 µM) | 0.06 (≈ 0.0765 µM) | 2 | 0.06 (≈ 0.0765 µM) | 2 (≈ 2.55 µM) | 2 (≈ 2.55 µM) | < 0.03 | 0.5 (≈ 0.637 µM) | 0.5 (≈ 0.637 µM) | < 0.06 | 0.13 (≈ 0.166 µM) |  | 0.15 | 2.1
5 | CNS(=O)(=O)c1ccc(Nc2ncc(NC(=O)N[C@@H](C(=O)N[C@@H]3C(=O)N4C(C(=O)O)=C(COC(C)=O)CS[C@H]34)c3ccc(O)cc3)c(O)n2)cc1 [H] | 0.5 (≈ 0.673 µM) | 16 (≈ 21.5 µM) | 0.5 (≈ 0.673 µM) | 16 | 0.5 (≈ 0.673 µM) | 4 (≈ 5.39 µM) | 4 (≈ 5.39 µM) | 0.13 (≈ 0.175 µM) | 2 (≈ 2.69 µM) | 1 (≈ 1.35 µM) | 0.6 (≈ 0.808 µM) | 0.5 (≈ 0.673 µM) |  |  | 
6 | CC(=O)Nc1nnc(SCC2=C(C(=O)O)N3C(=O)[C@@H](NC(=O)[C@H](NC(=O)Nc4cnc(NC5CCC(O)CC5)nc4O)c4ccc(O)cc4)[C@H]3SC2)s1 (stereo partly shown) [D] | 2 (≈ 2.54 µM) | 8 (≈ 10.2 µM) | 2 (≈ 2.54 µM) | 16 | 4 (≈ 5.08 µM) | 8 (≈ 10.2 µM) | 8 (≈ 10.2 µM) | 1 (≈ 1.27 µM) | 8 (≈ 10.2 µM) | 1 (≈ 1.27 µM) | 1 (≈ 1.27 µM) | 8 (≈ 10.2 µM) |  |  | 

— patent US4316898A, “Cephalosporins” (Boehringer Ingelheim KG, priority 1979, dated 1982)
